Test results taken from patent US5607967A, “Treatment of alzheimer's disease with 5-(tetradecyloxy)-2-furan carboxylic acid” (Merck & Co., Inc., priority 1994, dated 1997).

Assays:
GR/NER chimeric receptor = test: Activation of GR/NER in CV1 cells (luciferase); settings: for Fold of stimulation GR/NER, Control: without dopamine
Procedure: The ligand dependent transcription assays were performed as described in Example 4, using CV1 cells in place of COS cells. The transfected CV1 cells were treated with dopamine, TOFA, or with a combination of TOFA and dopamine at the indicated concentrations and tested for luciferase activity.
CV1 cells were co-transfected with the MMTV-Luciferase reporter gene (pJA358) and the GR/NER chimeric receptor as described in Example 4. The cells were treated with increasing amount of the dopamine D1 receptor antagonist SCH 23390 with or without 50 μM […] dopamine.

[1] = system: Dopamine D1 receptor antagonist (SCH 23390) induced catalepsy; test: SCH 23390 induced catalepsy (Bar method); assay type: in vivo, rat; settings: carrier pretreatment, 24 h later 0.5 mg/kg SCH23390
Procedure: Rats were pretreated with 0.4 mg/kg TOFA or with carrier (S.C.). Twenty-four hours later, the rats were challenged with 0.5 mg/kg SCH23390, a Dopamine D1 antagonist, and the duration of catalepsy was monitored.
Catalepsy was determined by a modification of the Bar method (Undie and Friedman, 1988). A steel bar, 1.1 cm in diameter and 50 cm long, was suspended at a height of 10 cm above the working surface. Three sides of the bench around the bar were walled off with brown cardboard, and the linings on the bench surface were selected to be of the same color with the cardboard walls. The animal's hind limbs were freely placed on the bench, the fail laid out to the back, and the forelimbs placed over the bar. The length of time a rat stayed up on the bar was noted up to a preset cut-off point of 120 s. The time was counted off upon observing any of the following actions: (1) the animal came off, placing its two forepaws on the bench, (2) the animal climbed onto or over the bar with both hind limbs, (3) the animal initiated locomotion along or around the bar. Subsequently, time readings were translated into scores by awarding a score of 1 for each successfully completed 5 s on the bar. For each observation time, catalepsy scores were averaged for all the animals in a group to give the Mean Score of the group at that observation time. Further, the scores for each animal at all the observation times were added to give the total score for that animal. The mean of this last group of numbers was called the Mean Total Score of the group.
Catalepsy scores were analyzed by computer in accordance with the statistical procedures outlined by Winer, B. J.: Statistical principles in experimental design. McGraw-Hill, New York, pp. 10-428, 1971. Generally, for a given set of comparisons, observations were subjected to an appropriate analysis of variance followed by two-tailed Dunnett or Student's t-tests to detect differences between treatment groups.

[2] = chronic treatment, medial cholinergic pathway lesions; cited from earlier work
[3] = molecular target: T1, GR/PPAR chimeric receptor (Mus musculus, UniProt P23204); test: Ligand dependent transcription assay, GR/PPAR chimeric receptor with MMTV-luciferase reporter; assay type: cell-based
T1 construct: COS cells, MMTV-luciferase
T1 sequence (P23204 1-468): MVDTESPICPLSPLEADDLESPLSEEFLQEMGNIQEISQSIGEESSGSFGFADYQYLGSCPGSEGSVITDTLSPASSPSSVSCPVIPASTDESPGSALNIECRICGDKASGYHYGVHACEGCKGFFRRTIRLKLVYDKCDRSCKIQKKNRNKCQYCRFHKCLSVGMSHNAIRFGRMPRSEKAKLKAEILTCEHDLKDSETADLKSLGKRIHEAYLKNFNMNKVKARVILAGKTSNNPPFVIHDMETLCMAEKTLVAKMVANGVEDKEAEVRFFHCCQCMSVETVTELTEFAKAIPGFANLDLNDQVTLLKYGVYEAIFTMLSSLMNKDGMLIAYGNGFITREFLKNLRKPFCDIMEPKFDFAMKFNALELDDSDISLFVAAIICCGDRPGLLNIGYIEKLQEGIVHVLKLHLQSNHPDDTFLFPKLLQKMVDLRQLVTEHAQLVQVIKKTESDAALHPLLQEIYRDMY
T1 sequence (P06537 1-792 partner): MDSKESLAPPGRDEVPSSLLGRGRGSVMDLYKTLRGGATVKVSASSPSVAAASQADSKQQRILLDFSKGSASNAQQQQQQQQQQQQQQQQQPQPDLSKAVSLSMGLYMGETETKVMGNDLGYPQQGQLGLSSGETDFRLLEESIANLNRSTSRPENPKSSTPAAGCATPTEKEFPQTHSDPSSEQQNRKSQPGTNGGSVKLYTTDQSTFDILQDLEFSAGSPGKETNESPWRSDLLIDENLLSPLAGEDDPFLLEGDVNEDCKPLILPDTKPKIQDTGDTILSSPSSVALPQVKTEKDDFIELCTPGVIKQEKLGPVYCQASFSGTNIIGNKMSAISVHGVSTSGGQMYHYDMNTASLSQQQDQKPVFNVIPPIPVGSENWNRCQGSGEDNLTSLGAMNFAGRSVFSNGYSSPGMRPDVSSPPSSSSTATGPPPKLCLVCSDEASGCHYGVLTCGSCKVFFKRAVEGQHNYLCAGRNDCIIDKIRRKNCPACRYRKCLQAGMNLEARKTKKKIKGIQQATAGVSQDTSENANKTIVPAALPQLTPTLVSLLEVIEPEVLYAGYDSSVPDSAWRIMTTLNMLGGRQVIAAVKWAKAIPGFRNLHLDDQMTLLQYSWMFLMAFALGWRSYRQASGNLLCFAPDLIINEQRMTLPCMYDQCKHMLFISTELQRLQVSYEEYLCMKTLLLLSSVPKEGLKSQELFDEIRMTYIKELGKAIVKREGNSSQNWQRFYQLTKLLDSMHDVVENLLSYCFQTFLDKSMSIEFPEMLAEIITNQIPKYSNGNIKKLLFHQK
Procedure: Similar hybrid receptors GR/NER, GR/NUC and GR/PPAR, in identical expression plasmid backgrounds were prepared essentially as described for the construction of the GR/mPPAR and GR/NUC chimeric receptors in Schmidt et al., "Identification of a new member of the steroid hormone receptor superfamily that is activated by a peroxisome proliferator and fatty acids," Mol. Endocrinol., 6(10):1634-41, 1992, and in Boie et al., "Enantioselective activation of the peroxisome proliferator-activated receptor", J. Biol. Chem. 268(8):5530-4, 1993.
Briefly, the amino terminal portion of the mouse glucocorticoid receptor (mGR), that includes the DNA binding domain was fused to the putative ligand binding domains of the nuclear receptor NER, hNUC-I (Schmidt et al., 1992), mPPAR (Issenmann and Green, 1990) to form the respective chimeric receptors GR/NER, GR/NUC and GR/PPAR. The GR/NER chimeric receptor was constructed as described for the GR/NUC and GR/PPAR hybrid receptors (Schmidt et al., 1992; Boie et al). The cDNA sequences coding for amino acids Arg^155 and Glu^156 of the NER receptor were converted to the Xho I restriction site, that was later used for the ligation to the GR cDNA sequences that coded for the DNA binding domain. Thus, converting amino acid residues Arg^155 and Glu^156 of NER receptor to amino acid residues Ser^155 and His^156.
The ligand transcription assay mediated by GR/PPAR in COS cells was performed as described in Example 4. The cells were treated with TOFA and Cerulenin at 0.1, 1, 10 and 100 μM.

[4] = Toxicity to transfected COS cells in the transcription assay; assay type: cell-based; settings: monkey, GR/PPAR transcription assay, read-out: Concentrations toxic to the cells
Procedure: The ligand transcription assay mediated by GR/PPAR in COS cells was performed as described in Example 4. The cells were treated with TOFA and Cerulenin at 0.1, 1, 10 and 100 μM. Concentrations of cerulenin above 10 μM were toxic to the cells.

Structure (SMILES)	Effect on transcription mediated by GR/NER in CV1 cells (GR/NER chimeric receptor)	Effect on inhibition of luciferase expression caused by dopamine (GR/NER chimeric receptor; 50 μM dopamine)	Fold of stimulation GR/NER, Dopamine (50 μM) (GR/NER chimeric receptor; SCH-23390 0.1 μM with 50 μM dopamine)	Fold of stimulation GR/NER, Control (GR/NER chimeric receptor; SCH-23390 0.1 μM)	Fold of stimulation GR/NER, Dopamine (50 μM) (GR/NER chimeric receptor; SCH-23390 1.0 μM with 50 μM dopamine)	Fold of stimulation GR/NER, Control (GR/NER chimeric receptor; SCH-23390 1.0 μM)	Fold of stimulation GR/NER, Dopamine (50 μM) (GR/NER chimeric receptor; SCH-23390 10.0 μM with 50 μM dopamine)	Fold of stimulation GR/NER, Control (GR/NER chimeric receptor; SCH-23390 10.0 μM)	Fold of stimulation GR/NER, Dopamine (50 μM) (GR/NER chimeric receptor; SCH-23390 100 μM with 50 μM dopamine)	Fold of stimulation GR/NER, Control (GR/NER chimeric receptor; SCH-23390 100 μM)	Catalepsy Duration [1]	Radial-arm maze performance [2]	Expression mediated by GR/PPAR [3]	fold induction at 0.1 µM ([3]; 0.1 μM, COS cells, Table 2, read-out: Fold of stimulation GR/PPAR)	fold induction at 1 µM ([3]; 1.0 μM, COS cells, Table 2, read-out: Fold of stimulation GR/PPAR)	fold induction at 10 µM ([3]; 10.0 μM, COS cells, Table 2, read-out: Fold of stimulation GR/PPAR)	MCC [4]
CN1CCc2cc(Cl)c(O)cc2C(c2ccccc2)C1 (single isomer, unassigned) [SCH-23390, 8-chloro-2,3,4,5-tetrahydro-3-methyl-5-phenyl-1H-3-benzazepin-7-ol hemimaleate]	stimulated the transcription	can reverse the inhibition of luciferase expression	0.59 ± 0.06 fold	1.32 ± 0.15 fold	0.55 ± 0.09 fold	1.22 ± 0.11 fold	0.83 ± 0.12 fold	1.64 ± 0.38 fold	2.61 ± 0.86 fold	2.38 ± 0.19 fold	3.1 ± 1.3 s	reversed the lesion-induced impaired performance					
C/C=C/C/C=C/CCC(=O)[C@H]1O[C@H]1C(N)=O [Cerulenin, cerulenin, reference compound]													did not stimulate transcription	1.03 ± 0.12	1.13 ± 0.05	0.58 ± 0.11	> 10 µM
